# Measurements taken from patent publication US12510533B2, “Methods for treating multiple myeloma and the use of companion biomarkers for 4-(4-(4-(((2-(2,6-dioxopiperidin-3-yl)-1-oxoisoindolin-4-yl)oxy)methyl)benzyl)piperazin-1-yl)-3-fluorobenzonitrile” (Celgene Corporation, priority 2018, dated 2025).
# Read-outs that look alike come from different tables or passages of the source.
# Legend:
# [1] = system: H929-1051; assay: Tumor cell lysis by anti-CD3-activated, compound-treated PBMCs, co-culture with untreated H929-1051; format: cell-based; settings: Homo sapiens, PBMC; lenalidomide-resistant H929-1051, untreated; 24-hour co-culture
# [2] = system: K562 cells; assay: Killing of untreated K562 cells by IL-2-activated PBMCs treated with compound (co-culture, Annexin V/PI); format: cell-based; settings: Homo sapiens, IL-2-activated PBMCs treated 72 hours, read-out: IC50, direct K562 cell killing by treated PBMCs
# Method: Freshly isolated human PBMCs were cultured with recombinant IL-2 at concentration of 20 units/mL for 72 hours. Peripheral blood mononuclear cells were then spun down and re-suspended in fresh RPMI complete medium to 2×10^6 cells/mL. Cells were then treated with DMSO or Compound 2 at the indicated concentrations and incubated for an additional 72 hours. The PBMCs were then washed twice in fresh RPMI complete medium prior to coculture. K562 cells were re-suspended to a cell density of 1×10^6 cells/mL and stained with 1 μM CellTrace CFSE according to manufacturer's instructions. The labeled K562 cells were then seeded into a 96-well round bottom plate at 1×10^5 cells/well. […] Specific target cell lysis by PBMC mediated apoptosis was measured using Annexin V-fluorescein isothiocyanate (FITC) and propidium iodide (PI) according to manufacturer's instructions and samples were run on the FACS Array scan. […] All myeloma cell lines were kept in log phase, and cell density and viability were monitored by trypan blue exclusion using the Vi-CELL XR cell viability analyzer. […] Frozen PBMC donors, were thawed at 37° C. for 2 minutes in RPMI medium with 10% FBS and cell counts and viability were measured on the Vi-CELL® (Beckman Coulter). […] Peripheral blood mononuclear cells were counted and added to the MM cells at a target:effector (T:E) ratio of 1:5. […]
# [3] = molecular target: T1, Aiolos (Homo sapiens, UniProt Q96SW2+Q9UKT9); assay: Aiolos degradation, ePL luminescence assay in DF15 cells expressing ePL-tagged Aiolos; format: cell-based; settings: for DC50: read-out: Degradation of Aiolos IC50, DF15 cells
# T1 construct: expressed in transfected cells; host or cells: DF15 multiple myeloma cells
# Method: FIG. 1 illustrates that Compound 2 and Compound 3 degraded Aiolos protein in a time and concentration dependent manner. DF15 cells expressing Enhanced ProLabel (ePL)-tagged Aiolos were incubated with Compound 2 (triangle) or Compound 3 (square) for 45 minutes, 90 minutes, or 3 hours at the indicated concentrations. Cell extracts were then generated and the amount of Aiolos-ePL protein was determined by ePL luminescence assay.
# The relative effectiveness of Compound 2 and Compound 3 to promote the destruction of Aiolos protein by the CRL4^CRBN E3 ubiquitin ligase was investigated in DF15 myeloma cells at different time points (45 minutes, 90 minutes, and 3 hours). DF15 cells expressing Enhanced ProLabel (ePL)-tagged Aiolos were incubated with Compound 2 or Compound 3 for 45 minutes, 90 minutes, or 3 hours. Cell extracts were then generated and the amount of Aiolos ePL protein was determined by ePL luminescence assay. Values shown in Table 1 correspond to data presented in FIG. 1 for Aiolos content vs. concentration.
# [4] = system: Aiolos, Ikaros, ZFP91; assay: Immunoblot of OPM2 cells after five-day incubation; format: cell-based, human; settings: Compound 2 alone
# Method: FIG. 4 illustrates that Compound 2 induced the degradation of Ikaros, Aiolos, ZFP91, c-Myc, and IRF4, which correlates with induction of the apoptotic protein cleaved-Caspase 3, and the cell cycle arrest protein p21. Immunoblot analysis of OPM2 parental cells incubated with Compound 2 at the indicated concentrations is shown. Actin is a loading control.
# Ikaros and Aiolos degradation was followed by reduction in the levels of two additional and highly critical transcription factors, c-Myc and IRF4 (FIG. 4). The loss or reduction of these factors was associated with an increase of the cyclin-dependent kinase inhibitor p21 and induction of apoptosis, as measured by cleaved caspase-3 (FIG. 4).
# T1 sequence (Q9UKT9 whole entry): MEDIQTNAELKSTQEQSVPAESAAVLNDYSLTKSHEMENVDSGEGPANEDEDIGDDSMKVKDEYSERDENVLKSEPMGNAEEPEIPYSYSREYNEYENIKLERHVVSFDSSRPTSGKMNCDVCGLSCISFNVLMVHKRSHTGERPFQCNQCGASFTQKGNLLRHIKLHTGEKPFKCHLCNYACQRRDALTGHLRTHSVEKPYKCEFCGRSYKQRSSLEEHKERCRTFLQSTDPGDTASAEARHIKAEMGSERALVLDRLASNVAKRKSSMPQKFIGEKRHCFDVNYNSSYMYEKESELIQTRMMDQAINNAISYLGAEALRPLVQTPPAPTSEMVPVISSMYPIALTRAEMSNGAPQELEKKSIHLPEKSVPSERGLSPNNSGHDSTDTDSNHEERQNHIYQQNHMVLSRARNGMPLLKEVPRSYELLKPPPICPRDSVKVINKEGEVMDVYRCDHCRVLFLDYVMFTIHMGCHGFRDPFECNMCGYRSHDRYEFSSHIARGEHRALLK
# T1 sequence (Q96SW2 whole entry): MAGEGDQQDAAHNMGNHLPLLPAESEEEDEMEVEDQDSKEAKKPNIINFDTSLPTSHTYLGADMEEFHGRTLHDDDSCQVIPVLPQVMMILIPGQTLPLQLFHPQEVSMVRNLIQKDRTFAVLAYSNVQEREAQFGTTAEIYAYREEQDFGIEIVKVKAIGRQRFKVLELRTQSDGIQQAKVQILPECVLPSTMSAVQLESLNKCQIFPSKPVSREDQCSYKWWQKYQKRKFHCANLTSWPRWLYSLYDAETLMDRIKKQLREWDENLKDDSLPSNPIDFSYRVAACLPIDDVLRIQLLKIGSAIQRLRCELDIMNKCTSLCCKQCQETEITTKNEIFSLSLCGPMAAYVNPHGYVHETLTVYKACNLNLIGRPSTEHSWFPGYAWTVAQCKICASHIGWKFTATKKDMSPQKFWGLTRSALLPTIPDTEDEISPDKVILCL
# T1 sequence (Q16531 2-1140, further chain): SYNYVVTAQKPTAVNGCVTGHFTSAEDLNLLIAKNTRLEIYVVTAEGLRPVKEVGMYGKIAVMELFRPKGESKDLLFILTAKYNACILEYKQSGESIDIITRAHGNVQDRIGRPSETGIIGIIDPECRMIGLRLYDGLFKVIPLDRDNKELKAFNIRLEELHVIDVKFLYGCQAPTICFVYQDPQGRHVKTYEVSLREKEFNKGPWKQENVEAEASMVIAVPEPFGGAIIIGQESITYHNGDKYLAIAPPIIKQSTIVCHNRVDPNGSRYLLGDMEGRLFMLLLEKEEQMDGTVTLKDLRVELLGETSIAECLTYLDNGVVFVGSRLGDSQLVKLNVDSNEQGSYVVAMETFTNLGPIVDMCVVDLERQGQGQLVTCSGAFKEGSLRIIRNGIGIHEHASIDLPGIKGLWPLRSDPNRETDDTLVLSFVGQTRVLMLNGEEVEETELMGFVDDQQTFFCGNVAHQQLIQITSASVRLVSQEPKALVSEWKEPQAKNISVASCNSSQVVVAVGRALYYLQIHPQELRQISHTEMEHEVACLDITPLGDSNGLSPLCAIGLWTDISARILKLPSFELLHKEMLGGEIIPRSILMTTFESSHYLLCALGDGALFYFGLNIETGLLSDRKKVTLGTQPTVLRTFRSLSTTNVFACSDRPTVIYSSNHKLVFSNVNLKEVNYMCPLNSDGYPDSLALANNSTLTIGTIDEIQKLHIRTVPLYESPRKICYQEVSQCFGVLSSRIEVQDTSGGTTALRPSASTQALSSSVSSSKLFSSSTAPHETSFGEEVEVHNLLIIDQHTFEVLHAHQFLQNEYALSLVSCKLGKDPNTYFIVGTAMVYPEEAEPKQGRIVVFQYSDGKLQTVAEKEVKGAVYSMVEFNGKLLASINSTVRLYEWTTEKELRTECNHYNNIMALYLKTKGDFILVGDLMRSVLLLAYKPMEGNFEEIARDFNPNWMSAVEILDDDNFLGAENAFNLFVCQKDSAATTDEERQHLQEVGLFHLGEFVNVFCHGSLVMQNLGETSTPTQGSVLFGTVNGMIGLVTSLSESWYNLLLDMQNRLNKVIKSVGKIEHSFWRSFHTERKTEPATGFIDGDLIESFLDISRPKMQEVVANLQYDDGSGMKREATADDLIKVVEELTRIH
smiles,measurement,setting,value
"N#Cc1ccc(N2CCN(Cc3ccc(COc4cccc5c4CN([C@H]4CCC(=O)NC4=O)C5=O)cc3)CC2)c(F)c1 [Compound 2, (S)-4-(4-(4-(((2-(2,6-dioxopiperidin-3-yl)-1-oxoisoindolin-4-yl)oxy)methyl)benzyl)piperazin-1-yl)-3-fluorobenzonitrile]",IC50,[1],0.2 nM
same,IC50,[2],0.0059 nM
same,manner of Aiolos degradation,"[3]; 45 minutes, 90 minutes, 3 hours",time-dependent and concentration-dependent
same,inhibition at 0.001 µM,"[3]; DF15, read-out: inhibition at 0.001 μM",27%
same,DC50,[3]; 45 minutes incubation,> 100 nM
same,DC50,[3]; 90 minutes incubation,0.36 nM
same,DC50,[3]; 3 hours incubation,0.031 nM
same,"expression level of Aiolos and Ikaros, as well as ZFP91",[4],significantly decreased
